{
  "source": "paper PMC5218480",
  "about": "(PLoS ONE, 2017)",
  "system": "MV-4-11 cells",
  "experiment": "Gene expression microarray analysis (Affymetrix PrimeView) and GSEA",
  "format": "cell-based, human",
  "design": "RFU PODN (11730768_x_at) / Fold change /veh PODN (11730768_x_at) / RFU LINC00158 (11744669_a_at) / Fold change /veh LINC00158 (11744669_a_at) / RFU DUSP10 (11751237_a_at) / Fold change /veh DUSP10 (11751237_a_at) / RFU ID3 (11757404_x_at) / Fold change /veh ID3 (11757404_x_at) / RFU PLEKHG5 (11737974_s_at) / Fold change /veh PLEKHG5 (11737974_s_at) / RFU LRRC4B (11730491_at) / Fold change /veh LRRC4B (11730491_at) / RFU GIMAP4 (11747438_a_at) / Fold change /veh GIMAP4 (11747438_a_at) / RFU KRT8 (11758183_x_at) / Fold change /veh KRT8 (11758183_x_at) / RFU CNN1 (11734310_a_at) / Fold change /veh CNN1 (11734310_a_at) / RFU VPS37D (11726825_at) / Fold change /veh VPS37D (11726825_at) / RFU C10orf10 (11716522_x_at) / Fold change /veh C10orf10 (11716522_x_at) / RFU KIR2DL2 /// KIR2DL4 /// KIR2DL5A /// KIR2DL5B /// KIR2DS1 /// KIR2DS2 /// KIR2DS3 /// KIR2DS4 /// KIR3DL3 /// KIR3DL3 /// KIR3DS1 (11738374_at) / Fold change /veh KIR2DL2 /// KIR2DL4 /// KIR2DL5A /// KIR2DL5B /// KIR2DS1 /// KIR2DS2 /// KIR2DS3 /// KIR2DS4 /// KIR3DL3 /// KIR3DL3 /// KIR3DS1 (11738374_at) / RFU C1QL1 (11718748_at) / Fold change /veh C1QL1 (11718748_at) / RFU TMPRSS4 (11747572_a_at) / Fold change /veh TMPRSS4 (11747572_a_at) / RFU HAMP (11756126_x_at) / Fold change /veh HAMP (11756126_x_at) / RFU RNFT2 (11725882_a_at) / Fold change /veh RNFT2 (11725882_a_at) / RFU NR4A2 (11747474_a_at) / Fold change /veh NR4A2 (11747474_a_at) / RFU ABCC12 (11746883_a_at) / Fold change /veh ABCC12 (11746883_a_at) / RFU TMEM136 (11760407_x_at) / Fold change /veh TMEM136 (11760407_x_at) / RFU CLDN22 /// WWC2 (11732394_at) / Fold change /veh CLDN22 /// WWC2 (11732394_at) / RFU HLA-DPB1 (11760878_x_at) / Fold change /veh HLA-DPB1 (11760878_x_at) / RFU SPINT1 (11716480_a_at) / Fold change /veh SPINT1 (11716480_a_at) / RFU GAP43 (11754022_s_at) / Fold change /veh GAP43 (11754022_s_at) / RFU A4GNT (11735810_at) / Fold change /veh A4GNT (11735810_at) / RFU PRB3 (11715151_x_at) / Fold change /veh PRB3 (11715151_x_at) / RFU TUBB4B (11761932_at) / Fold change /veh TUBB4B (11761932_at) / RFU CAPN14 (11732068_a_at) / Fold change /veh CAPN14 (11732068_a_at) / RFU TMCC2 (11721928_a_at) / Fold change /veh TMCC2 (11721928_a_at) / RFU IRGQ (11745062_a_at) / Fold change /veh IRGQ (11745062_a_at) / RFU FAM174B (11720279_a_at) / Fold change /veh FAM174B (11720279_a_at) / RFU TMPRSS4 (11748680_a_at) / Fold change /veh TMPRSS4 (11748680_a_at) / RFU FAM212B (11763350_a_at) / Fold change /veh FAM212B (11763350_a_at) / RFU PLEKHG5 (11743358_a_at) / Fold change /veh PLEKHG5 (11743358_a_at) / RFU ZSCAN30 (11745921_a_at) / Fold change /veh ZSCAN30 (11745921_a_at) / RFU CMKLR1 (11741424_a_at) / Fold change /veh CMKLR1 (11741424_a_at) / RFU LOC101060620 /// MAPK8IP1 (11723275_at) / Fold change /veh LOC101060620 /// MAPK8IP1 (11723275_at) / RFU SPTSSB (11747773_x_at) / Fold change /veh SPTSSB (11747773_x_at) / RFU PRSS12 (11739890_at) / Fold change /veh PRSS12 (11739890_at) / RFU BIN1 (11741810_x_at) / Fold change /veh BIN1 (11741810_x_at) / RFU WNT11 (11732464_a_at) / Fold change /veh WNT11 (11732464_a_at) / RFU C10orf10 (11716521_a_at) / Fold change /veh C10orf10 (11716521_a_at) / RFU C5orf56 (11738089_at) / Fold change /veh C5orf56 (11738089_at) / RFU CYB561 (11721691_x_at) / Fold change /veh CYB561 (11721691_x_at) / RFU ANKRD19P (11752326_a_at) / Fold change /veh ANKRD19P (11752326_a_at) / RFU OR2T12 /// OR2T33 /// OR2T8 (11738714_s_at) / Fold change /veh OR2T12 /// OR2T33 /// OR2T8 (11738714_s_at) / RFU VCAN (11748164_a_at) / Fold change /veh VCAN (11748164_a_at) / RFU JSRP1 (11732532_at) / Fold change /veh JSRP1 (11732532_at) / RFU KRTAP10-11 (11738290_x_at) / Fold change /veh KRTAP10-11 (11738290_x_at) / RFU MYO3A (11730013_a_at) / Fold change /veh MYO3A (11730013_a_at) / RFU EBF3 (11725865_a_at) / Fold change /veh EBF3 (11725865_a_at) / RFU CAMK2N1 (11719241_x_at) / Fold change /veh CAMK2N1 (11719241_x_at) / RFU C5orf56 (11738088_a_at) / Fold change /veh C5orf56 (11738088_a_at) / RFU OLFML3 (11715873_a_at) / Fold change /veh OLFML3 (11715873_a_at) / RFU LOC100653217 /// NTM (11731650_a_at) / Fold change /veh LOC100653217 /// NTM (11731650_a_at) / RFU MAPK11 (11762145_a_at) / Fold change /veh MAPK11 (11762145_a_at) / RFU FIZ1 (11724087_x_at) / Fold change /veh FIZ1 (11724087_x_at) / RFU OASL (11726364_x_at) / Fold change /veh OASL (11726364_x_at) / RFU SOX15 (11748057_x_at) / Fold change /veh SOX15 (11748057_x_at) / RFU CD79A (11719716_a_at) / Fold change /veh CD79A (11719716_a_at) / RFU HIST1H1D (11736915_at) / Fold change /veh HIST1H1D (11736915_at) / RFU CASKIN2 (11723855_a_at) / Fold change /veh CASKIN2 (11723855_a_at) / RFU LOC730098 (11760151_x_at) / Fold change /veh LOC730098 (11760151_x_at) / RFU OR4N2 (11742367_at) / Fold change /veh OR4N2 (11742367_at) / RFU PRRT2 (11749266_a_at) / Fold change /veh PRRT2 (11749266_a_at) / RFU SNX32 (11753110_a_at) / Fold change /veh SNX32 (11753110_a_at) / RFU CDHR5 (11726645_a_at) / Fold change /veh CDHR5 (11726645_a_at) / RFU RCAN1 (11760418_a_at) / Fold change /veh RCAN1 (11760418_a_at) / RFU FAM167A (11723789_a_at) / Fold change /veh FAM167A (11723789_a_at) / RFU FAM26E (11764081_at) / Fold change /veh FAM26E (11764081_at) / RFU ISYNA1 (11749810_s_at) / Fold change /veh ISYNA1 (11749810_s_at) / RFU ACY1 (11761880_at) / Fold change /veh ACY1 (11761880_at) / RFU 11764098_at / Fold change /veh 11764098_at / RFU SAMD14 (11745864_x_at) / Fold change /veh SAMD14 (11745864_x_at) / RFU NPB (11741838_a_at) / Fold change /veh NPB (11741838_a_at) / RFU TMPRSS6 (11731388_a_at) / Fold change /veh TMPRSS6 (11731388_a_at) / RFU KRTAP10-2 (11738614_at) / Fold change /veh KRTAP10-2 (11738614_at) / RFU ARHGAP8 /// PRR5-ARHGAP8 (11727945_x_at) / Fold change /veh ARHGAP8 /// PRR5-ARHGAP8 (11727945_x_at) / RFU KRTAP5-7 /// NADSYN1 (11734609_at) / Fold change /veh KRTAP5-7 /// NADSYN1 (11734609_at) / RFU RASL12 (11751679_a_at) / Fold change /veh RASL12 (11751679_a_at) / RFU CDKN2B (11736163_a_at) / Fold change /veh CDKN2B (11736163_a_at) / RFU PRF1 (11729649_at) / Fold change /veh PRF1 (11729649_at) / RFU, ZNF638 /// ZNF638-IT1 / Fold change vs veh, ZNF638 /// ZNF638-IT1 / RFU, PANK3 / Fold change vs veh, PANK3 / RFU, SH3YL1 / Fold change vs veh, SH3YL1 / RFU, ZEB2 / Fold change vs veh, ZEB2 / RFU, NRIP1 / Fold change vs veh, NRIP1 / RFU, PTTG1IP / Fold change vs veh, PTTG1IP / RFU, CAPN2 / Fold change vs veh, CAPN2 / RFU, MED14 / Fold change vs veh, MED14 / RFU, SNORA58 / Fold change vs veh, SNORA58 / RFU, C1orf63 / Fold change vs veh, C1orf63 / RFU, LRRFIP1 / Fold change vs veh, LRRFIP1 / RFU, NDUFAF7 / Fold change vs veh, NDUFAF7 / RFU, SLC12A2 / Fold change vs veh, SLC12A2 / RFU, IBTK / Fold change vs veh, IBTK / RFU, ESF1 / Fold change vs veh, ESF1 / Fold change vs veh, TMEM50B / RFU, TAOK1 / Fold change vs veh, TAOK1 / RFU, ACBD3 / Fold change vs veh, ACBD3 / RFU, TMA16 / Fold change vs veh, TMA16 / RFU, RWDD3 / Fold change vs veh, RWDD3 / RFU, BCAT1 / Fold change vs veh, BCAT1 / RFU, EDEM3 / Fold change vs veh, EDEM3 / RFU, TMEM33 / Fold change vs veh, TMEM33 / RFU, WDR75 / Fold change vs veh, WDR75 / RFU, AHCTF1 / Fold change vs veh, AHCTF1 / RFU, TFRC / Fold change vs veh, TFRC / RFU, ZDHHC17 / Fold change vs veh, ZDHHC17 / RFU, NOM1 / Fold change vs veh, NOM1 / RFU, ARL8B / Fold change vs veh, ARL8B / RFU, ZBTB11 / Fold change vs veh, ZBTB11 / RFU, TAMM41 / Fold change vs veh, TAMM41 / RFU, KIAA1704 /// LOC100996395 / Fold change vs veh, KIAA1704 /// LOC100996395 / RFU, ING1 / Fold change vs veh, ING1 / RFU, TRMT61B / Fold change vs veh, TRMT61B / RFU, FUBP3 / Fold change vs veh, FUBP3 / RFU, TP53 / Fold change vs veh, TP53 / RFU, TNKS2 / Fold change vs veh, TNKS2 / RFU, ZFP14 / Fold change vs veh, ZFP14 / RFU, ACTR2 / Fold change vs veh, ACTR2 / RFU, PPP3R1 / Fold change vs veh, PPP3R1 / RFU, PIK3R1 / Fold change vs veh, PIK3R1 / RFU, HNRNPA1 / Fold change vs veh, HNRNPA1 / RFU, RNF170 / Fold change vs veh, RNF170 / RFU, ZNF28 / Fold change vs veh, ZNF28 / RFU, RNGTT / Fold change vs veh, RNGTT / RFU, OGT / Fold change vs veh, OGT / RFU, BRD1 / Fold change vs veh, BRD1 / RFU, MARS / Fold change vs veh, MARS / RFU, ZNF655 / Fold change vs veh, ZNF655 / RFU, FAHD1 / Fold change vs veh, FAHD1 / RFU, BDP1 / Fold change vs veh, BDP1 / RFU, LRRCC1 / Fold change vs veh, LRRCC1 / RFU, ARID1A / Fold change vs veh, ARID1A / RFU, ZNF146 / Fold change vs veh, ZNF146 / RFU, ZNF330 / Fold change vs veh, ZNF330 / RFU, GPN3 / Fold change vs veh, GPN3 / RFU, C9orf123 / Fold change vs veh, C9orf123 / RFU, N4BP2L2 / Fold change vs veh, N4BP2L2 / RFU, ARFIP1 / Fold change vs veh, ARFIP1 / RFU, FAM179B / Fold change vs veh, FAM179B / RFU, BCL10 / Fold change vs veh, BCL10 / RFU, UHRF1BP1L / Fold change vs veh, UHRF1BP1L / RFU, BET1 / Fold change vs veh, BET1 / RFU, CNOT2 / Fold change vs veh, CNOT2 / RFU, ZNF268 / Fold change vs veh, ZNF268 / Fold change vs veh, ZNF507 / RFU, DGCR2 / Fold change vs veh, DGCR2 / RFU, WDSUB1 / Fold change vs veh, WDSUB1 / Fold change vs veh, HSP90B1 /// MIR3652 / RFU, ADSS / Fold change vs veh, ADSS / RFU, GK / Fold change vs veh, GK / RFU, ZNF148 / Fold change vs veh, ZNF148 / RFU, TAF9 / Fold change vs veh, TAF9 / RFU, SLC1A5 / Fold change vs veh, SLC1A5 / RFU, SLMO2 / Fold change vs veh, SLMO2 / RFU, ABCC4 / Fold change vs veh, ABCC4 / RFU, LOC101060439 /// RAP1B / Fold change vs veh, LOC101060439 /// RAP1B / RFU, RFX7 / Fold change vs veh, RFX7 / RFU, GTPBP10 / Fold change vs veh, GTPBP10 / RFU, CNEP1R1 / Fold change vs veh, CNEP1R1 / RFU, BIVM-ERCC5 /// ERCC5 / Fold change vs veh, BIVM-ERCC5 /// ERCC5 / RFU, ILF3 / Fold change vs veh, ILF3 / RFU 11762660_at / Fold change /veh 11762660_at / RFU VCAN (11757783_s_at) / Fold change /veh VCAN (11757783_s_at) / RFU DDX43 (11728927_at) / Fold change /veh DDX43 (11728927_at) / RFU KRT8 (11758188_x_at) / Fold change /veh KRT8 (11758188_x_at) / RFU NKD1 (11759106_at) / Fold change /veh NKD1 (11759106_at) / RFU SRD5A1 (11742802_a_at) / Fold change /veh SRD5A1 (11742802_a_at) / RFU TPSAB1 /// TPSB2 (11721975_s_at) / Fold change /veh TPSAB1 /// TPSB2 (11721975_s_at) / RFU GSTM3 (11746129_a_at) / Fold change /veh GSTM3 (11746129_a_at) / RFU IL23R (11737362_x_at) / Fold change /veh IL23R (11737362_x_at) / RFU TMEM51 (11727254_a_at) / Fold change /veh TMEM51 (11727254_a_at) / RFU PIWIL2 (11732686_x_at) / Fold change /veh PIWIL2 (11732686_x_at) / RFU ORM1 (11744905_x_at) / Fold change /veh ORM1 (11744905_x_at) / RFU CCDC152 (11743942_at) / Fold change /veh CCDC152 (11743942_at) / RFU ECM1 (11717891_a_at) / Fold change /veh ECM1 (11717891_a_at) / RFU IL23R (11748794_a_at) / Fold change /veh IL23R (11748794_a_at) / RFU TNFAIP8L3 (11732012_x_at) / Fold change /veh TNFAIP8L3 (11732012_x_at) / RFU MBOAT4 (11741988_at) / Fold change /veh MBOAT4 (11741988_at) / RFU 11764193_at / Fold change /veh 11764193_at / RFU TMEM53 (11763286_at) / Fold change /veh TMEM53 (11763286_at) / RFU MAGEB2 (11727129_at) / Fold change /veh MAGEB2 (11727129_at) / RFU TMEM200A (11744735_a_at) / Fold change /veh TMEM200A (11744735_a_at) / RFU CCDC152 (11751479_a_at) / Fold change /veh CCDC152 (11751479_a_at) / RFU FAM211A (11726209_a_at) / Fold change /veh FAM211A (11726209_a_at) / RFU RGS16 (11746705_a_at) / Fold change /veh RGS16 (11746705_a_at) / RFU VCAN (11755009_s_at) / Fold change /veh VCAN (11755009_s_at) / RFU RHOB (11743442_s_at) / Fold change /veh RHOB (11743442_s_at) / RFU RGS16 (11720943_a_at) / Fold change /veh RGS16 (11720943_a_at) / RFU RGS16 (11720944_at) / Fold change /veh RGS16 (11720944_at) / RFU, VPS4B / Fold change vs veh, VPS4B / RFU, CREB1 / Fold change vs veh, CREB1 / RFU, DNAJC13 / Fold change vs veh, DNAJC13 / RFU, GNAQ / Fold change vs veh, GNAQ / RFU, CDK5R1 / Fold change vs veh, CDK5R1 / RFU, ZRANB3 / Fold change vs veh, ZRANB3 / RFU, CUL4A / Fold change vs veh, CUL4A / RFU, CCNY / Fold change vs veh, CCNY / RFU, UFL1 / Fold change vs veh, UFL1 / RFU, COG3 / Fold change vs veh, COG3 / RFU, DIAPH2 / Fold change vs veh, DIAPH2 / RFU, SKA2 / Fold change vs veh, SKA2 / RFU, AFF3 / Fold change vs veh, AFF3 / RFU, LMF1 / Fold change vs veh, LMF1 / RFU, IPO11 / Fold change vs veh, IPO11 / RFU, DFFB / Fold change vs veh, DFFB / RFU, FOXP1 / Fold change vs veh, FOXP1 / RFU, CARD8 / Fold change vs veh, CARD8 / RFU, STRN3 / Fold change vs veh, STRN3 / RFU, ADK / Fold change vs veh, ADK / RFU, RASSF2 / Fold change vs veh, RASSF2 / RFU, WIPF1 / Fold change vs veh, WIPF1 / RFU, LARP1B / Fold change vs veh, LARP1B / RFU, RASA1 / Fold change vs veh, RASA1 / RFU, RB1 / Fold change vs veh, RB1 / RFU, PPFIA1 / Fold change vs veh, PPFIA1 / RFU, MAT2A / Fold change vs veh, MAT2A / RFU, CCT5 / Fold change vs veh, CCT5 / RFU, WDR92 / Fold change vs veh, WDR92 / RFU, CUX1 / Fold change vs veh, CUX1 / RFU, TTC7A / Fold change vs veh, TTC7A / RFU, TMEM135 / Fold change vs veh, TMEM135 / RFU, DEPTOR / Fold change vs veh, DEPTOR / RFU, CPM / Fold change vs veh, CPM / RFU, DNAJB6 / Fold change vs veh, DNAJB6 / RFU, CACNA2D3 / Fold change vs veh, CACNA2D3 / RFU, DTX4 / Fold change vs veh, DTX4 / RFU, TFCP2 / Fold change vs veh, TFCP2 / RFU, GMCL1 /// GMCL1P1 / Fold change vs veh, GMCL1 /// GMCL1P1 / RFU, AEBP2 / Fold change vs veh, AEBP2 / RFU, SNHG1 /// SNORD22 /// SNORD25 /// SNORD26 /// SNORD27 /// SNORD28 /// SNORD29 /// SNORD31 / Fold change vs veh, SNHG1 /// SNORD22 /// SNORD25 /// SNORD26 /// SNORD27 /// SNORD28 /// SNORD29 /// SNORD31 / Fold change (Aza/veh), C12orf56 (ProbeSet 11735607_a_at) / Fold change (ACY-1035/veh), C12orf56 (ProbeSet 11735607_a_at) / Fold change (Aza/veh), FGFR1OP (ProbeSet 11751329_s_at) / Fold change (ACY-1035/veh), FGFR1OP (ProbeSet 11751329_s_at) / Fold change (Aza/veh), VPS36 (ProbeSet 11739960_a_at) / Fold change (ACY-1035/veh), VPS36 (ProbeSet 11739960_a_at) / RFU SYPL1 (11715823_x_at) / Fold change /veh SYPL1 (11715823_x_at) / RFU IGFBP7 (11715501_s_at) / Fold change /veh IGFBP7 (11715501_s_at) / RFU REEP3 (11722064_at) / Fold change /veh REEP3 (11722064_at) / RFU IGLL1 (11728026_x_at) / Fold change /veh IGLL1 (11728026_x_at): dose or concentration left out as unconfirmed",
  "details": "MV-4-11 cells, 48 hours",
  "data": [
    {"smiles": "Nc1ccc(-c2cccs2)cc1NC(=O)c1ccc2c(c1)cc(C1CC1)n2CCN1CCOCC1", "note": "[ACY-1035]", "values": [
      {"measurement": "Fold change /veh GSTM3 (11746129_a_at)", "result": 0.96}
    ]}
  ]
}
